{
  "source": "ChEMBL document CHEMBL5136967",
  "about": "“Identification of molecular glues of the SLP76/14-3-3 protein-protein interaction” (RSC Med Chem, 2021)",
  "data": [
    {"organism": "Homo sapiens", "test": "Binding affinity to His6-tagged/Tb-labelled 14-3-3gamma (unknown origin)/His6-SUMO-tagged/AF647-labelled SLP76 (unknown origin) expressed in Noco21 (DE3) cells assessed as fold change in KD improvement by HTRF assay", "values": [
      {"smiles": "O=C1OC[C@@H]2CCN(Cc3ccccc3)Cc3ccccc3N12", "fold change (FC)": 3.3},
      {"smiles": "Fc1ccc(OCc2nn3c(Cn4cnc5ccccc54)nnc3s2)cc1", "fold change (FC)": 3.5},
      {"smiles": "COc1ccc(C(=O)N2C[C@@H]3CN(CCO3)C(=O)[C@@H]3C[C@@H](CN3Cc3ccc4c(c3)OCO4)NC(=O)C[C@@H]3O[C@H](C2)[C@@H](O)[C@H]3O)cc1", "fold change (FC)": 3.4},
      {"smiles": "CC(C)N1CC[C@H]2COC(=O)N2c2cc(F)ccc2C1", "fold change (FC)": 4.1},
      {"smiles": "CC(C)CNC(=O)c1ccc2c(c1)nc1n2CCN(C(C)C)C1=O", "fold change (FC)": 5.2},
      {"smiles": "c1cc(-c2nnc3scnn23)ccn1", "fold change (FC)": 4.4},
      {"smiles": "COc1ccccc1-c1nnc2scnn12", "fold change (FC)": 11},
      {"smiles": "S=c1[nH]nc(Cn2nnc3ccccc32)o1", "fold change (FC)": 1.1},
      {"smiles": "O=C(Cn1nc(C(F)(F)F)c2c1CCCC2)Nc1ccc(Cl)c(Cl)c1", "fold change (FC)": 14.6},
      {"smiles": "CC1=Nn2c(nnc2-c2ccoc2C)SC1", "fold change (FC)": 1.4},
      {"smiles": "O=C(c1ccc(Cl)cc1)n1c(Cn2nnc(-c3cccc4ccccc34)n2)n[nH]c1=S", "fold change (FC)": 1.8},
      {"smiles": "CC1=CCC2COC(C[N+]3(C)CCCCC3)C1C2", "note": "(configuration not stated)", "fold change (FC)": 4.7}
    ]}
  ]
}
